Data: patent US20090186361A1, “METHODS OF PREDICTING THE PHARMACEUTICAL TOXICITY OF TAXANES” (priority 2008, published 2009)

What was measured:
Assay type in all cases: in vivo, human
[1] = system: CYP3A5; assay: Regression of Toxicity Index on CYP3A5 SNP genotype of recipient subjects; details: for Para. Est., TI5 vs CYP3A5_3A (multivariable): multivariable analysis best model; for Para. Est., TI5 vs CYP3A5_3A (multivariable) / Para. Est., TI5 vs CYP3A5_3A1 / Para. Est., TI5 vs CYP3A5_3A: cycle 5
Description: (§1) The GENOMELAB SNPSTREAM™ (Beckman) was utilized to accommodate up to 92,000 genotypes per day. This automated, multiplexed system can process up to 48 SNPs in each well of an arrayed 384-well plate. The SNPSTREAM™ operates at a consistent cost per genotype or per sample, regardless of run throughput, allowing users to cost-effectively zero in on targets with low-throughput studies as well as conduct high-throughput analyses.
(§2) The SNPSTREAM™ Genotyping System features a protocol with three steps. The technology is based on single-based primer extension technology. The system's high sensitivity delivers results using as little as 2 ng of genomic DNA. SNPWARE™ reagent kits were used. The kits included ready-to-use reagents, all performed in the original PCR plate according to the manufacturer's instructions, and incorporated herein by reference in its entirety.
(§3) Multiplexed reactions were spatially resolved on a SNPWARE™ Tag Array plate. Each of the 384 wells in a plate contained 16 or 52 unique oligonucleotides of a known sequence, or tag. Each tag on the plate was complementary to one of the tags of the 12 or 48 extension primers, plus four controls to ensure accuracy. After transfer to the Tag Array plate, each SNP was hybridized to its complementary tag. SNPs were then identified by their position in the well.
(§4) The process involved a multiplex PCR followed by an annealing reaction of the oligonucleotide to the specific PCR product. Next the oligonucleotide was extended by a single base which was fluorescently labeled with a terminating NTP and finally detected by two-colored fluorescence specific for the allele.
(§5) For each SNP, the -PCRU and -PCRL primers were first used to amplify a relevant DNA fragment surrounding the target SNP site. The components per reaction were: H2O, 3.0 μl; 10× PCR Buffer II, 0.5 μl; MgCl2 (25 mM), 1.0 μl; dNTPs (2.5 mM each), 0.18 μl; PCR Primer Pool (2.5 μM each), 0.1 μl; AMPLITAQ GOLD™ (5 U/μl), 0.125 μl for a total volume of 5.0 μl per reaction.
(§6) Primer -SNPU or SNPL was then used for single-base extension reaction. The thermocycler program was as follows: Step 1: 96° C. for 3 min; Step 2: 94° C. for 20 sec; Step 3: 40° C. for 11 sec; and Step 5: return to step 2 59 times, and finally to hold at 4° C.
(§7) A preliminary data analysis focused on the relationship between the Toxicity Index and the recipient subjects' demographic/genetic information. […] Univariate linear regression analysis was conducted first to find significant covariates in predicting the Toxicity Index in one of five cycles, then multivariable analysis was used to determine the best model in fitting the data. A mixed model for repeated measurement was implemented in modeling Toxicity Index in the first five cycles, and also in all cycles. Autoregressive covariance structure was used in the mixed model. SAS and Minitab were used in the analysis.
(§8) Covariates in the analysis included recoded binary demographic variables (sex, race, site, grade, stage) and recoded binary genetic variables.
(§9) Multivariable regression analysis was used to find the best model in predicting the Toxicity Index in each of the first five cycles.

[2] = system: MAPT; assay: Regression / mixed model of Toxicity Index on MAPT SNP genotype of recipient subjects; details: for Fixed effect Estimate, COL6_2 (MAPT_H1): TT=1, CC=0
Description: as §1, §2, §3, §4, §5, §6, §7, §8, §9
A mixed model for repeated measurements was implemented to find the best model in fitting the longitudinal data. Autoregressive covariance structure was used in the mixed model. Toxicity Indexes in the first five cycles were included in the analysis.
To model Toxicity Indexes in all 21 cycles, a mixed model was used to find the best model. For the paclitaxel, Received dose and MAPT_H14 were significant fixed effects in predicting the longitudinal Toxicity Index in all cycles.

[3] = system: TUBB gene locus; assay: Regression of Toxicity Index on TUBB SNP genotype of recipient subjects
Description: as §1, §2, §3, §4, §5, §6
Thirty (30) recipient subjects already receiving treatment with paclitaxel were screened for the presence of SNPs in the CYP2C8 and TUBB loci. Clinical data from each of the recipient subjects was used to first calculate a Toxicity Index (TI) value for each individual according to the method presented in Example 1, above. The genotype for each recipient subject with regard to the SNPs of CYP2C8 and TUBB was determined using SNPWARE™ and single base extension according to the methods of Example 4, above.
For the CYP2C8 locus, two genotypes for the rsl 058932 SNP (as shown in FIG. 1) were considered: heterozygous TC and homozygous CC. For the TUBB locus (SNP rs3132584), the heterozygous SNP CA, and the combined homozygous AA and CC variants, were considered.
as §7, §8, §9

[4] = system: CYP2C8 gene locus; assay: Regression of Toxicity Index on CYP2C8 SNP genotype of recipient subjects
Description: The […] ™ Genotyping System features a protocol with three steps. The technology is based on single-based primer extension technology. […] SNPWARE™ reagent kits were used.
For each SNP, the -PCRU and -PCRL primers were first used to amplify a relevant DNA fragment surrounding the target SNP site. The components per reaction were: H2O, 3.0 μl; 10× PCR Buffer II, 0.5 μl; MgCl2 (25 mM), 1.0 μl; dNTPs (2.5 mM each), 0.18 μl; PCR Primer Pool (2.5 μM each), 0.1 μl; [sequence] GOLD™ (5 U/μl), 0.125 μl for a total volume of 5.0 μl per reaction.

Compound: CC(=O)O[C@@]12CO[C@@H]1C[C@H](O)[C@@]1(C)C(=O)[C@H](O)C3=C(C)[C@@H](OC(=O)[C@H](O)[C@@H](NC(=O)OC(C)(C)C)c4ccccc4)C[C@@](O)([C@@H](OC(=O)c4ccccc4)[C@H]21)C3(C)C (relative stereo) [Docetaxel, Benzenepropanoic acid, β-(((1,1-dimethylethoxy)carbonyl)amino)-α-hydroxy-, 12b-(acetyloxy)-12-(benzoyloxy)-2a,3,4,4a,5,6,9,10,11,12,12a,12b-dodecahydro-4,6,11-trihydroxy-4a,8,13,13-tetramethyl-5-oxo-7,11-methano-1H-cyclodeca(3,4)benz(1,2-b)oxet-9-yl ester trihydrate, (2aR-(2aα,4β,4aβ,6β,9(αR*,βS),11α,12α,12aα,12bα))-]
- Para. Est., TI5 vs CYP3A5_3A (multivariable) ([1]; rs776746, AG = 1, GG/AA = 0, P-value 0.024): −1.739
- Para. Est., TI4 vs CYP3A5_3A1 ([1]; univariate linear regression, cycle 4, rs15524, TC = 1, CC/TT = 0, P-value 0.045): −1.079
- Para. Est., TI4 vs CYP3A5_3A ([1]; univariate linear regression, cycle 4, rs776746, AG = 1, GG/AA = 0, P-value 0.045): −1.079
- Para. Est., TI5 vs CYP3A5_3A1 ([1]; univariate linear regression, rs15524, TC = 1, CC/TT = 0, P-value 0.024): −1.739
- Para. Est., TI5 vs CYP3A5_3A ([1]; univariate linear regression, rs776746, AG = 1, GG/AA = 0, P-value 0.024): −1.739
- Fixed effect Estimate, COL6_2 (MAPT_H1) ([2]; mixed model, longitudinal Toxicity Index in all cycles, Pr > |t| 0.0029): 1.1286
- Fixed effect Estimate, COL6_2 (MAPT_H1) ([2]; mixed model, longitudinal Toxicity Index in first five cycles, Pr > |t| 0.0170): 1.1407
- Para. Est., TI4 vs MAPT_H2 (multivariable) ([2]; multivariable analysis best model, cycle 4, rs17652121, TT = 1, CC/TC = 0, P-value 0.029): −0.900
- Para. Est., TI3 vs MAPT_H13 (multivariable) ([2]; multivariable regression with Site, cycle 3, rs3785883, GG = 1, AG = 0, P-value 0.003): 1.408
- Para. Est., TI3 vs MAPT_H1_H21 ([2]; univariate linear regression, cycle 3, rs754512, AA = 1, TA/TT = 0, P-value 0.010): −1.107
- Para. Est., TI3 vs MAPT_H1_H22 ([2]; univariate linear regression, cycle 3, rs767058, AA = 1, AG/GG = 0, P-value 0.006): −1.166
- Para. Est., TI3 vs MAPT_H1_H23 ([2]; univariate linear regression, cycle 3, rs2055794, GG = 1, AA/AG = 0, P-value 0.010): −1.107
- Para. Est., TI3 vs MAPT_H13 ([2]; univariate linear regression, cycle 3, rs3785883, GG = 1, AG = 0, P-value 0.013): −1.245
- Para. Est., TI3 vs MAPT_H2 ([2]; univariate linear regression, cycle 3, rs17652121, TT = 1, CC/TC = 0, P-value 0.006): −1.166
- Para. Est., TI4 vs MAPT_H1_H21 ([2]; univariate linear regression, cycle 4, rs754512, AA = 1, TA/TT = 0, P-value 0.023): −0.953
- Para. Est., TI4 vs MAPT_H1_H22 ([2]; univariate linear regression, cycle 4, rs767058, AA = 1, AG/GG = 0, P-value 0.029): −0.900
- Para. Est., TI4 vs MAPT_H1_H23 ([2]; univariate linear regression, cycle 4, rs2055794, GG = 1, AA/AG = 0, P-value 0.023): −0.953
- Para. Est., TI4 vs MAPT_H2 ([2]; univariate linear regression, cycle 4, rs17652121, TT = 1, CC/TC = 0, P-value 0.029): −0.900

Compound: CC(=O)O[C@H]1C(=O)[C@@]2(C)[C@H]([C@H](OC(=O)c3ccccc3)[C@]3(O)C[C@H](OC(=O)[C@H](O)[C@@H](NC(=O)c4ccccc4)c4ccccc4)C(C)=C1C3(C)C)[C@]1(OC(C)=O)CO[C@@H]1C[C@@H]2O [Paclitaxel, (2aR,4S,4aS,6R,9S,11S,12S,12aR,12bS)-1,2a,3,4,4a,6,9,10,11,12,12a,12b-Dodecahydro-4,6,9,11,12,12b-hexahydroxy-4a,8,13,13-tetramethyl-7,11-methano-5H-cyclodeca(3,4)benz(1,2-b)oxet-5-one 6,12b-diacetate, 12-benzoate, 9-ester with (2R,3S)-N-benzoyl-3-phenylisoserine]
- Coef, regression TI1 versus CYP2C8_2_31, TUBB2: predictor TUBB2 ([3]; 30 recipient subjects, rs3132584, heterozygous CA vs combined AA and CC, P 0.039): −0.9135
- Para. Est., TI2 vs TUBB4 (multivariable) ([3]; multivariable analysis best model, cycle 2, rs1061397, CC = 1, TC/TT = 0, P-value 0.037): −1.185
- Para. Est., TI1 vs TUBB2 (multivariable) ([3]; multivariable regression with CYP2C8_2_31, cycle 1, rs3132584, CA = 1, CC/AA = 0, P-value 0.039): 0.914
- Para. Est., TI1 vs TUBB1 ([3]; univariate linear regression, cycle 1, rs8233, AG = 1, AA/GG = 0, P-value 0.042): 0.975
- Para. Est., TI1 vs TUBB2 ([3]; univariate linear regression, cycle 1, rs3132584, CA = 1, CC/AA = 0, P-value 0.042): 0.975
- Para. Est., TI2 vs TUBB3 ([3]; univariate linear regression, cycle 2, rs25527, CC = 1, TC/TT = 0, P-value 0.047): −1.062
- Para. Est., TI2 vs TUBB4 ([3]; univariate linear regression, cycle 2, rs1061397, CC = 1, TC/TT = 0, P-value 0.037): −1.185
- Para. Est., TI5 vs CYP3A5_3A (multivariable) ([1]; rs776746, GG = 1, AG = 0, P-value 0.022): 1.477
- Para. Est., TI5 vs CYP3A5_3A1 ([1]; univariate linear regression, rs15524, TT = 1, TC = 0, P-value 0.022): 1.477
- Para. Est., TI5 vs CYP3A5_3A ([1]; univariate linear regression, rs776746, GG = 1, AG = 0, P-value 0.022): 1.477
- Coef, regression TI1 versus CYP2C8_2_31, TUBB2: predictor CYP2C8_2_31 ([4]; 30 recipient subjects, rs1058932, heterozygous TC vs homozygous CC, P 0.020): −1.1100
- Para. Est., TI4 vs CYP2C8_1C (multivariable) ([4]; multivariable analysis best model, cycle 4, rs17110453, AA = 1, CA = 0, P-value 0.033): −1.267
- Para. Est., TI1 vs CYP2C8_2_31 (multivariable) ([4]; multivariable regression with TUBB2, cycle 1, rs1058932, CC = 1, TC = 0, P-value 0.020): −1.110
- Para. Est., TI1 vs CYP2C8_2_31 ([4]; univariate linear regression, cycle 1, rs1058932, CC = 1, TC = 0, P-value 0.021): −1.168
- Para. Est., TI4 vs CYP2C8_1C ([4]; univariate linear regression, cycle 4, rs17110453, AA = 1, CA = 0, P-value 0.033): −1.267
- Fixed effect Estimate, COL18_3 (MAPT_H14) ([2]; mixed model for repeated measurements, longitudinal Toxicity Index in first five cycles, Pr > |t| 0.0118): 0.8918
- Fixed effect Estimate, COL18_3 (MAPT_H14) ([2]; mixed model, longitudinal Toxicity Index in all 21 cycles, Pr > |t| 0.0114): 0.6989
- Para. Est., TI3 vs MAPT_H14 (multivariable) ([2]; multivariable analysis best model, cycle 3, rs242557, TC = 1, CC/TT = 0, P-value 0.012): 1.236
- Para. Est., TI1 vs MAPT_H14 ([2]; univariate linear regression, cycle 1, rs242557, TC = 1, CC/TT = 0, P-value 0.016): 1.151
- Para. Est., TI3 vs MAPT_H14 ([2]; univariate linear regression, cycle 3, rs242557, TC = 1, CC/TT = 0, P-value 0.012): 1.236
